Reference: US12612379B2, “Inhibitors of APOL1 and methods of using same” (Vertex Pharmaceuticals Incorporated, priority 2021, dated 2026)

Target: T1, APOL1 (tet-inducible transgenic APOL1 T-REx-HEK293 cell lines) (Homo sapiens, UniProt O14791)
T1 sequence (O14791 1-398 S342G/I384M): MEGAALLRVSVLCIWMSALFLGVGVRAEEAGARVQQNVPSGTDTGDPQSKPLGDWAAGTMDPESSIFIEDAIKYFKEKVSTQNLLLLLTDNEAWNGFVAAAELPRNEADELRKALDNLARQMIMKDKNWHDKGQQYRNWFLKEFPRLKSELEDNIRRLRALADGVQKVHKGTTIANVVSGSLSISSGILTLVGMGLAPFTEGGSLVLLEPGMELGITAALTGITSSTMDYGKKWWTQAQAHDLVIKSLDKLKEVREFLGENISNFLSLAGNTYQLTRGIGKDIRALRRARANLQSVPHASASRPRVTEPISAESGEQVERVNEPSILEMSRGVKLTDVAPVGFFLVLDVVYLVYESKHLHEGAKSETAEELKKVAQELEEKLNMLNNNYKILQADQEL
Assay: MultiTox-Fluor Multiplex Cytotoxicity Assay for APOL1 inhibitor properties
Type: cell-based
Details: APOL1 induced with 50 ng/mL tet, 24 hours with compound, ratio of dead to live cells, top concentration 10 μM; APOL1 variant (G0/G1/G2) not stated; read-out: IP50 (nM) (i.e., IC50 for cell proliferation)
Procedure: The MultiTox-Fluor Multiplex Cytotoxicity Assay is a single-reagent-addition, homogeneous, fluorescence assay that measures the number of live and dead cells simultaneously in culture wells. The assay measures cell viability and cytotoxicity by detecting two distinct protease activities. The live-cell protease activity is restricted to intact viable cells and is measured using a fluorogenic, cell-permeant peptide glycyl-phenylalanylamino fluorocoumarin (GF-AFC) substrate. The substrate enters intact cells, where it is cleaved to generate a fluorescent signal proportional to the number of living cells. […] A second, cell-impermeant, fluorogenic peptide substrate (bis-AAF-R110 Substrate) is used to measure dead-cell protease that has been released from cells that have lost membrane integrity. A ratio of dead to live cells is used to normalize data.
Briefly, the tet-inducible transgenic APOL1 T-REx-HEK293 cell lines were incubated with 50 ng/mL tet to induce APOL1 in the presence of 3-(2-(4-fluorophenyl)-1H-indol-3-yl)-N-((3S,4R)-4-hydroxy-2-oxopyrrolidin-3-yl)propenamide at 10.03, 3.24, 1.13, 0.356, 0.129, 0.042, 0.129, 0.0045, 0.0015, 0.0005 μM in duplicate for 24 hours in a humidified 37° C. incubator. The MultiTox reagent was added to each well and placed back in the incubator for an additional 30 minutes. The plate was read on the EnVision plate reader. A ratio of dead to live cells was used to normalize, and data was imported, analyzed, and fit using Genedata Screener (Basel, Switzerland) software. Data was normalized using percent of control, no tet (100% viability), and 50 ng/mL tet treated (0% viability), and fit using Smart Fit. The reagents, methods, and complete protocol for the MultiTox assay are described below.
Human embryonic kidney (HEK293) cell lines containing a tet-inducible expression system (T-REx™; Invitrogen, Carlsbad, CA) and Adeno-associated virus site 1 pAAVS1-Puro-APOL1 G0 or pAAVS1-Puro-APOL1 G1 or pAAVS1-Puro-APOL1 G2 Clones G0 DC2.13, G1 DC3.25, and G2 DC4.44 were grown in a T-225 flask at ˜90% confluency in cell growth media (DMEM, 10% Tet-free FBS, 2 mM L-glutamine, 100 Units/mL penicillin-streptomycin, 5 μg/mL blasticidin S HCl, 1 μg/mL puromycin dihydrochloride). Cells were washed with DPBS and then trypsinized to dissociate from the flask. Media was used to quench the trypsin, cells were then pelleted at 200 g and resuspended in fresh cell assay media (DMEM, 2% Tet-free FBS, 2 mM L-glutamine, 100 Units/mL penicillin-streptomycin). Cells were counted and diluted to 1.17×10^6 cells/mL. 20 μL of cells (23,400/well) were dispensed in every well of a 384-well Poly-D-Lysine coated plate using the Multidrop dispenser. The plates were then incubated at room temperature for one hour.
Tetracycline is needed to induce APOL1 expression. 1 mg/mL tet stock in water was diluted to 250 ng/mL (5×) in cell assay media. 60 μL of cell assay media (no tet control) was dispensed in columns 1 and 24, and 60 μL of 5×tet in 384-PP-round bottom plate was dispensed in columns 2 to 23 with the Multidrop dispenser.
Assay ready plates from the Global Compound Archive were ordered using template 384_APOL1Cell_DR10n2_50 uM_v3. Compounds were dispensed at 200 nL in DMSO. The final top concentration was 10 μM with a 10 point 3-fold dilution in duplicate in the MultiTox assay.
20 μL was transferred from the 5×tet plate to the ARP and mixed, then 5 μL of 5×tet and the compounds were transferred to the cell plate and mixed using the Bravo. The cell plate was placed in the humidified 37° C. 5% CO2 incubator for 24 hours.
The MultiTox-Fluor Multiplex Cytotoxicity Assay was performed in accordance with the manufacturer's protocol. After cells were incubated with tet and compound for 24 hours, 25 μL of 1×MultiTox reagent was added to each well using the Multidrop dispenser; the plates were placed on a plate shaker (600 rpm) for 2 minutes, then centrifuged briefly and placed back in the 37° C. incubator for 30 minutes. […]

SMILES	IC50 [nM]
C[C@H]1C[C@@](C(N)=O)(c2ccc(Cl)cn2)C[C@@H](c2cn(C)nn2)N1 [Compound 64]	≥ 500
C[C@H]1C[C@@](O)(C2CCCCC2)C[C@@H](c2cn(C)nn2)N1 [Compound 60, (2S,4S,6S)-4-cyclohexyl-2-methyl-6-(1-methyltriazol-4-yl)piperidin-4-ol]	≥ 500
C[C@H]1C[C@@](O)(c2ccc(SC3CC3)cc2)C[C@@H](c2cn(C)nn2)N1 [Compound 49]	50 to 500
C[C@H]1C[C@@](O)(c2ccc(C(C)(F)F)cc2)C[C@@H](c2cn(C)nn2)N1 [Compound 39]	≤ 50
CC1CC(O)(c2ccc(C(F)(F)F)cc2)CC(c2c[nH]nn2)N1 (stereo not shown) [Compound 62, 2-methyl-6-(1H-triazol-4-yl)-4-[4-(trifluoromethyl)phenyl]piperidin-4-ol]	≤ 50
C[C@@H]1C[C@](O)(c2cccc(Cl)c2)C[C@H](C)N1 [Compound 1]	≥ 500
C[C@H]1C[C@@](O)(c2cccc(C(F)(F)F)c2)C[C@@H](c2cn(C)nn2)N1 [Compound 48]	50 to 500
C[C@H]1C[C@@](O)(c2ccc(F)cc2)C[C@@H](c2cn(C)nn2)N1 [Compound 15]	≥ 500
C[C@H]1C[C@@](O)(c2ccc(Cl)c(OC(F)(F)F)c2)C[C@@H](c2cn(C)nn2)N1 [Compound 23]	≤ 50
C[C@H]1C[C@@](O)(c2cc(F)cc(Cl)c2)C[C@@H](c2cn(C)nn2)N1 [Compound 10]	50 to 500
Cc1cccc([C@@]2(O)C[C@@H](c3cn(C)nn3)N[C@@H](C)C2)c1 [Compound 6]	50 to 500
C[C@H]1C[C@@](O)(c2ccc3nnn(C)c3c2)C[C@@H](c2cn(C)nn2)N1 [Compound 57]	≥ 500
Cc1cc([C@@]2(O)C[C@@H](c3cn(C)nn3)N[C@@H](C)C2)ccc1F [Compound 12]	50 to 500
C[C@H]1C[C@@](O)(c2ccc(C(F)(F)F)nc2)C[C@@H](c2cn(C)nn2)N1 [Compound 37]	50 to 500
C[C@H]1C[C@@](O)(c2ccc(Cl)c(C(=O)N(C)C)c2)C[C@@H](c2cn(C)nn2)N1 [Compound 24]	50 to 500
Cc1ccc([C@@]2(O)C[C@@H](c3cn(C)nn3)N[C@@H](C)C2)cc1 [Compound 5]	50 to 500
Cc1cc(Cl)ccc1[C@@]1(O)C[C@@H](c2cn(C)nn2)N[C@@H](C)C1 [Compound 21]	50 to 500
Cc1cc([C@@]2(O)C[C@@H](c3cn(C)nn3)N[C@@H](C)C2)ccc1Cl [Compound 26]	≤ 50
C[C@H]1C[C@@](O)(c2ccc(F)c(Cl)c2)C[C@@H](c2cn(C)nn2)N1 [Compound 9]	50 to 500
Cc1cc([C@@]2(O)C[C@@H](c3cn(C)nn3)N[C@@H](C)C2)ccc1C(F)(F)F [Compound 34]	≤ 50
C[C@H]1C[C@@](O)(c2ccc(C(F)(F)F)c(C(F)(F)F)c2)C[C@@H](c2cn(C)nn2)N1 [Compound 51]	≤ 50
C[C@H]1C[C@@](O)(c2ccc3c(c2)OCC3)C[C@@H](c2cn(C)nn2)N1 [Compound 53]	≥ 500
